According to PubChem BioAssay (NCI):
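Protocol summary: plate cells (96-well), add compound at 5 concentrations, incubate 48 h, interpolate endpoints linearly. Abbreviation: GI50, concentration required for 50% inhibition of growth. At the TGI there is no net growth.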

What was measured:
Experiment in all cases: DTP human tumour cell line panel, 48 h; in the data active means GI50 below about 0.43 µM; inactive means the rest
SK-MEL-5 melanoma = system: SK-MEL-5 melanoma
HT29 colon = system: HT29 colon
SF-268 CNS = system: SF-268 CNS
PC-3 prostate = system: PC-3 prostate
HCT-116 colon = system: HCT-116 colon
DU-145 prostate = system: DU-145 prostate
HOP-62 NSCLC = system: HOP-62 NSCLC
RPMI-8226 leukemia = system: RPMI-8226 leukemia
NCI-H23 lung = system: NCI-H23 lung
ACHN renal = system: ACHN renal
OVCAR-3 ovarian = system: OVCAR-3 ovarian
IGROV1 ovarian = system: IGROV1 ovarian
SNB-75 CNS = system: SNB-75 CNS
A549 NSCLC = system: A549 NSCLC
SF-539 CNS = system: SF-539 CNS
NCI-H460 lung = system: NCI-H460 lung
MDA-MB-231 breast = system: MDA-MB-231 breast
MCF7 breast = system: MCF7 breast
A498 renal = system: A498 renal
UACC-62 melanoma = system: UACC-62 melanoma
EKVX NSCLC = system: EKVX NSCLC
SN12C renal = system: SN12C renal
HCT-15 colon = system: HCT-15 colon
T-47D breast = system: T-47D breast
SR leukemia = system: SR leukemia
OVCAR-4 ovarian = system: OVCAR-4 ovarian
NCI/ADR-RES ovarian = system: NCI/ADR-RES ovarian
CCRF-CEM leukemia = system: CCRF-CEM leukemia
RXF 393 renal = system: RXF 393 renal
SW-620 colon = system: SW-620 colon
UO-31 renal = system: UO-31 renal
SNB-19 CNS = system: SNB-19 CNS
HCC-2998 colon = system: HCC-2998 colon
U251 CNS = system: U251 CNS
M14 melanoma = system: M14 melanoma
BT-549 breast = system: BT-549 breast
KM12 colon = system: KM12 colon
HS 578T breast = system: HS 578T breast
786-0 renal = system: 786-0 renal
NCI-H522 lung = system: NCI-H522 lung
SK-MEL-28 melanoma = system: SK-MEL-28 melanoma
SF-295 CNS = system: SF-295 CNS
LOX IMVI melanoma = system: LOX IMVI melanoma
SK-OV-3 ovarian = system: SK-OV-3 ovarian
NCI-H226 lung = system: NCI-H226 lung
COLO 205 colon = system: COLO 205 colon
MDA-MB-435 = system: MDA-MB-435
MOLT-4 leukemia = system: MOLT-4 leukemia
K-562 leukemia = system: K-562 leukemia
OVCAR-5 ovarian = system: OVCAR-5 ovarian
HL-60(TB) leukemia = system: HL-60(TB) leukemia
UACC-257 melanoma = system: UACC-257 melanoma
SK-MEL-2 melanoma = system: SK-MEL-2 melanoma
MALME-3M melanoma = system: MALME-3M melanoma
HOP-92 NSCLC = system: HOP-92 NSCLC
OVCAR-8 ovarian = system: OVCAR-8 ovarian
CAKI-1 renal = system: CAKI-1 renal
TK-10 renal = system: TK-10 renal

CCN1CCC(CC(=O)Nc2n[nH]c3nnc(-c4cccc(F)c4F)cc23)CC1
inactive: GI50 (SK-MEL-5 melanoma) > 6.37 µM | GI50 (HT29 colon) 12.4 µM | GI50 (SF-268 CNS) > 25 µM | GI50 (PC-3 prostate) > 25 µM | GI50 (HCT-116 colon) 24.9 µM | GI50 (DU-145 prostate) > 25 µM | GI50 (HOP-62 NSCLC) > 25 µM | GI50 (RPMI-8226 leukemia) > 25 µM | GI50 (NCI-H23 lung) > 25 µM | GI50 (ACHN renal) > 25 µM | GI50 (OVCAR-3 ovarian) 3.65 µM | GI50 (IGROV1 ovarian) > 25 µM | GI50 (A549 NSCLC) > 25 µM | GI50 (SF-539 CNS) > 18.9 µM | GI50 (NCI-H460 lung) > 25 µM | GI50 (MDA-MB-231 breast) > 25 µM | GI50 (MCF7 breast) 4.11 µM | GI50 (A498 renal) 2.84 µM | GI50 (UACC-62 melanoma) > 25 µM | GI50 (EKVX NSCLC) > 25 µM | GI50 (SN12C renal) > 25 µM | GI50 (HCT-15 colon) > 25 µM | GI50 (T-47D breast) > 25 µM | GI50 (SR leukemia) > 25 µM | GI50 (OVCAR-4 ovarian) > 25 µM | GI50 (NCI/ADR-RES ovarian) > 25 µM | GI50 (CCRF-CEM leukemia) > 25 µM | GI50 (RXF 393 renal) 5.56 µM | GI50 (SW-620 colon) > 25 µM | GI50 (UO-31 renal) > 25 µM | GI50 (SNB-19 CNS) > 25 µM | GI50 (HCC-2998 colon) > 25 µM | GI50 (U251 CNS) 21.2 µM | GI50 (M14 melanoma) > 25 µM | GI50 (BT-549 breast) > 25 µM | GI50 (KM12 colon) > 25 µM | GI50 (HS 578T breast) > 19.9 µM | GI50 (786-0 renal) > 25 µM | GI50 (NCI-H522 lung) > 25 µM | GI50 (SK-MEL-28 melanoma) > 25 µM | GI50 (SF-295 CNS) 18 µM | GI50 (LOX IMVI melanoma) > 25 µM | GI50 (SK-OV-3 ovarian) > 25 µM | GI50 (NCI-H226 lung) 22.5 µM | GI50 (COLO 205 colon) 22.3 µM | GI50 (MDA-MB-435) > 25 µM | GI50 (MOLT-4 leukemia) > 25 µM | GI50 (K-562 leukemia) > 25 µM | GI50 (OVCAR-5 ovarian) > 25 µM | GI50 (HL-60(TB) leukemia) > 25 µM | GI50 (UACC-257 melanoma) > 25 µM | GI50 (SK-MEL-2 melanoma) 16.9 µM | GI50 (MALME-3M melanoma) > 25 µM | GI50 (HOP-92 NSCLC) > 25 µM | GI50 (OVCAR-8 ovarian) > 25 µM | GI50 (CAKI-1 renal) > 25 µM | GI50 (TK-10 renal) > 25 µM
> 25 µM: TGI (SK-MEL-5 melanoma) | TGI (HT29 colon) | TGI (SF-268 CNS) | TGI (PC-3 prostate) | TGI (HCT-116 colon) | TGI (DU-145 prostate) | TGI (HOP-62 NSCLC) | TGI (RPMI-8226 leukemia) | TGI (NCI-H23 lung) | TGI (ACHN renal) | TGI (OVCAR-3 ovarian) | TGI (IGROV1 ovarian) | TGI (SNB-75 CNS) | TGI (A549 NSCLC) | TGI (SF-539 CNS) | TGI (NCI-H460 lung) | TGI (MDA-MB-231 breast) | TGI (MCF7 breast) | TGI (A498 renal) | TGI (UACC-62 melanoma) | TGI (EKVX NSCLC) | TGI (SN12C renal) | TGI (HCT-15 colon) | TGI (T-47D breast) | TGI (SR leukemia) | TGI (OVCAR-4 ovarian) | TGI (NCI/ADR-RES ovarian) | TGI (CCRF-CEM leukemia) | TGI (RXF 393 renal) | TGI (SW-620 colon) | TGI (UO-31 renal) | TGI (SNB-19 CNS) | TGI (HCC-2998 colon) | TGI (U251 CNS) | TGI (M14 melanoma) | TGI (BT-549 breast) | TGI (KM12 colon) | TGI (HS 578T breast) | TGI (786-0 renal) | TGI (NCI-H522 lung) | TGI (SK-MEL-28 melanoma) | TGI (SF-295 CNS) | TGI (LOX IMVI melanoma) | TGI (SK-OV-3 ovarian) | TGI (NCI-H226 lung) | TGI (COLO 205 colon) | TGI (MDA-MB-435) | TGI (MOLT-4 leukemia) | TGI (K-562 leukemia) | TGI (OVCAR-5 ovarian) | TGI (HL-60(TB) leukemia) | TGI (UACC-257 melanoma) | TGI (SK-MEL-2 melanoma) | TGI (MALME-3M melanoma) | TGI (HOP-92 NSCLC) | TGI (OVCAR-8 ovarian) | TGI (CAKI-1 renal) | TGI (TK-10 renal)
